Measurements reported in US20060252735A1, “Treatment of graft-versus-host disease and leukemia with beclomethasone dipropionate and prednisone” (DOR BioPharma, Inc., priority 2004, published 2006).

Columns and labels:
[1] = system: gastrointestinal GVHD patients; conditions: cited from earlier work
[2] = system: patients with Grade II GVHD with GI symptoms; assay: Phase III randomized, double-blind, placebo-controlled trial: treatment failure with oral BDP plus 10 days of prednisone; format: in vivo, human; conditions: for Cumulative events (treatment failures): full analysis set, 62 randomized
Excerpt: The Secondary objectives of the study were:
To be eligible for entry into the study, patients were at least 10 days post allogeneic hematopoietic cell transplantation, have GI symptoms consistent with Grade II GVHD, and had endoscopic evidence of GVHD. The diagnosis of GVHD was confirmed by biopsy of the intestine (esophagus, stomach, small intestine, or colon) or skin. A total of 129 eligible patients were randomized to one of two treatment groups.
(§1) The randomization was stratified by the source of the allograft (two HLA haplotype identical sibling versus all other), and by topical corticosteroid use (yes versus no). All patients received 10 days of prednisone at 1 mg/kg/day (or an equivalent dose of intravenous [IV] corticosteroid). On Study Day 10, patients determined by the investigator to have their GVHD controlled had their prednisone tapered rapidly over 7 days starting on Study Day 11, and received a maintenance prednisone dose of 0.0625 mg/kg/day for the remainder of the study. BDP doses were evenly divided to include equal quantities of the IR and EC formulations administered four times per day.
1. Treatment failure, defined as use of prednisone or equivalent IV corticosteroids at doses higher than stated in protocol, or addition of other immunosuppressant medications.
The primary efficacy endpoint of this two-arm study was the time to treatment failure. The primary efficacy analysis will compare the time to treatment failure through Study Day 50 using a log-rank test controlling for patient randomization stratum. Product-limit estimates for time to failure will be provided for descriptive purposes. The null hypothesis for the log-rank test is that time to failure is homogeneous across the treatment groups.
Secondary analyses of treatment failure compared the treatment groups with respect to proportion of treatment failures and Karnofsky Scale (or Lansky Scale) scores at key time points. The difference in proportion of treatment failures on Study Days 10, 30, 50, 60, and 80 was evaluated using a two-sided Fisher's Exact test of the null hypothesis of no difference between the treatment groups. The difference in Karnofsky Scale (or Lansky Scale) scores at the same time points was evaluated using a two-sided Wilcoxon test to evaluate the null hypothesis of no difference in medians between treatment groups.
On Study Day 10, patients were evaluated for the signs and symptoms of GVHD. Patients in both treatment groups who met the response criterion of adequately controlled GVHD, as judged by the investigator, had their prednisone tapered over 7 days starting on Study Day 11 (Table 2). Starting on Study Day 17, physiologic replacement doses of prednisone were given for the remainder of the study. If the investigator determined that GVHD was not controlled on Study Day 10, patients discontinued study drug but continued prednisone initially at 1 mg/kg/day; these patients were considered to be treatment failures. In treatment failure cases, physicians subsequently modifiedy prednisone dosage as deemed appropriate.
One hundred and twenty-nine (129) post-bone marrow transplant patients presenting with Grade II iGVHD were enrolled in the randomized, double-blind, placebo-controlled, multi-center clinical trial, which was conducted at 16 bone marrow transplant centers in the United States and France. All patients in the Phase III clinical trial were initially treated with a constant daily dose of high dose (1-2 mg/kg) prednisone, which is the current standard therapy, in combination with an oral dose of either orBec® (8 mg/day) or placebo for the first 10 days. On day 10, if patients were responding to treatment, the high dose prednisone was rapidly tapered and patients continued to receive either orBec® or placebo orally for an additional forty days. […]

[3] = system: Grade II GI GVHD; conditions: capsule form, 8 mg/day divided into 4 equal doses; cited from earlier work
[4] = system: patients with Grade II GVHD with GI symptoms; assay: Phase III trial: survival/mortality through 200 days post-transplant; format: in vivo, human
Protocol: 5. To compare the treatment groups with respect to total deaths and cause of death through 200 days post-transplant.
as §1
7. Patient survival through day 200 post-transplant.
One hundred and twenty-nine (129) post-bone marrow transplant patients presenting with Grade II iGVHD were enrolled in the randomized, double-blind, placebo-controlled, multi-center clinical trial, which was conducted at 16 bone marrow transplant centers in the United States and France. All patients in the Phase III clinical trial were initially treated with a constant daily dose of high dose (1-2 mg/kg) prednisone, which is the current standard therapy, in combination with an oral dose of either orBec® (8 mg/day) or placebo for the first 10 days. On day 10, if patients were responding to treatment, the high dose prednisone was rapidly tapered and patients continued to receive either orBec® or placebo orally for an additional forty days. The primary endpoint of the study was a comparison between the two treatment arms of the time to treatment failure, defined as the need for additional therapies due to uncontrolled signs or symptoms of GVHD. Secondary endpoints in the study included a comparison of the proportion of treatment failures and clinical scores at 10 Days, 30 Days, 50 Days, 60 Days and 80 Days post-randomization, a comparison of cumulative exposure to systemic steroids, as well as a comparison of mortality at Day 200 post-transplant.

[5] = system: patients with Grade II GVHD with gastrointestinal symptoms; conditions: oral BDP 8 mg/day for 30 days as adjuvant to prednisone; cited from earlier work
[6] = up to 28 days of BDP 8 mg/day, both groups (taking prednisone or not)
[7] = 200 days post-transplant, safety population, 61 evaluable
[8] = orBec n = 62, p 0.006 vs placebo

CCC(=O)OCC(=O)[C@@]1(OC(=O)CC)[C@@H](C)C[C@H]2[C@@H]3CCC4=CC(=O)C=C[C@]4(C)[C@@]3(Cl)[C@@H](O)C[C@@]21C [BDP, Beclomethasone 17,21-dipropionate]
study drug associated adverse events reported ([1]; BDP 8 mg/day for 28 days): mild metallic taste and mild peri-umbilical heaviness
treatment-related adverse events ([1]; BDP 8 mg/day for 28 days): No significant treatment-related adverse events were observed
timing of response versus historical high dose prednisone ([1]; BDP alone group): appeared to be slower
gastrointestinal symptoms versus baseline [1, 6]: abatement of most gastrointestinal symptoms
oral food intake versus baseline [1, 6]: increase in oral food intake
Cumulative treatment failure rate (Kaplan-Meier estimate) ([2]; Study day 10, P = 0.1538 vs placebo): 0.14
Cumulative events (treatment failures) ([2]; Study day 10): 8
Cumulative treatment failure rate (Kaplan-Meier estimate) ([2]; Study day 30, P = 0.3625 vs placebo): 0.25
Cumulative events (treatment failures) ([2]; Study day 30): 15
Cumulative treatment failure rate (Kaplan-Meier estimate) ([2]; Study day 50, P = 0.0515 vs placebo): 0.31
Cumulative events (treatment failures) ([2]; Study day 50): 18
Cumulative treatment failure rate (Kaplan-Meier estimate) ([2]; Study day 60, P = 0.0558 vs placebo): 0.33
Cumulative events (treatment failures) ([2]; Study day 60): 19
Cumulative treatment failure rate (Kaplan-Meier estimate) ([2]; Study day 80, P = 0.0048 vs placebo): 0.39
Cumulative events (treatment failures) ([2]; Study day 80): 22
time to treatment failure through Day 50 (primary endpoint) versus placebo ([2]; log-rank, p-value 0.1177): did not achieve statistical significance
Treatment Failure Rate at Study Day 80 ([2]; orBec 8 mg/day for 50 days + prednisone, n = 62, p 0.0048 vs placebo): 39%
Treatment Failure Rate at Study Day 50 ([2]; orBec 8 mg/day for 50 days + prednisone, n = 62, p 0.0515 vs placebo): 31%
time to treatment failure through Day 80 (secondary endpoint) versus placebo ([2]; p-value 0.0226): did achieve statistical significance
clinical benefit in treatment of Grade II GI GVHD [3]: provide clinical benefit
Survival status: Alive, number of subjects [4, 7]: 56
Survival status: Alive, percent of subjects [4, 7]: 92%
Survival status: Dead, number of subjects [4, 7]: 5
Survival status: Dead, percent of subjects [4, 7]: 8%
reduction in mortality versus placebo group ([4]; Day 200 post-transplant period): 70%
Mortality Rate at 200 Days Post-Transplant [4, 8]: 8%
Mortality at 200 Days Post-Transplant, number of deaths [4, 8]: 5
Day 200 survival rate ([4]; safety population, Z = 2.750, P = 0.0060 vs placebo): 0.91
gastrointestinal symptoms (nausea, vomiting, diarrhea) versus placebo group [5]: all improved
proportion of patients with increased oral caloric intake versus prednisone plus placebo [5]: significantly higher proportion
